Reference: ChEMBL document CHEMBL5625183, “Discovery of a novel dual-target inhibitor of CDK12 and PARP1 that induces synthetic lethality for treatment of triple-negative breast cancer” (Eur J Med Chem, 2023)
Active and inactive are the calls of the source. The rule behind the calls is not given here.

Columns and labels:
MDA-MB-468 [1] = assay: Antiproliferative activity against human MDA-MB-468 cells assessed as inhibition of cell growth incubated for 24 hrs by MTT assay; format: functional, cell-based; settings: MDA-MB-468, 24 h
MDA-MB-436 [2] = assay: Antiproliferative activity against human MDA-MB-436 cells assessed as inhibition of cell growth incubated for 24 hrs by MTT assay; format: functional, cell-based; settings: Homo sapiens, MDA-MB-436, 24 h
[3] = target: T1, Cyclin-dependent kinase 12 (Homo sapiens, UniProt Q9NYV4); assay: Inhibition of CDK12 (unknown origin) in presence of ATP by kinase-glo plus luminescent assay
Target sequence in this assay (Q9NYV4 whole entry): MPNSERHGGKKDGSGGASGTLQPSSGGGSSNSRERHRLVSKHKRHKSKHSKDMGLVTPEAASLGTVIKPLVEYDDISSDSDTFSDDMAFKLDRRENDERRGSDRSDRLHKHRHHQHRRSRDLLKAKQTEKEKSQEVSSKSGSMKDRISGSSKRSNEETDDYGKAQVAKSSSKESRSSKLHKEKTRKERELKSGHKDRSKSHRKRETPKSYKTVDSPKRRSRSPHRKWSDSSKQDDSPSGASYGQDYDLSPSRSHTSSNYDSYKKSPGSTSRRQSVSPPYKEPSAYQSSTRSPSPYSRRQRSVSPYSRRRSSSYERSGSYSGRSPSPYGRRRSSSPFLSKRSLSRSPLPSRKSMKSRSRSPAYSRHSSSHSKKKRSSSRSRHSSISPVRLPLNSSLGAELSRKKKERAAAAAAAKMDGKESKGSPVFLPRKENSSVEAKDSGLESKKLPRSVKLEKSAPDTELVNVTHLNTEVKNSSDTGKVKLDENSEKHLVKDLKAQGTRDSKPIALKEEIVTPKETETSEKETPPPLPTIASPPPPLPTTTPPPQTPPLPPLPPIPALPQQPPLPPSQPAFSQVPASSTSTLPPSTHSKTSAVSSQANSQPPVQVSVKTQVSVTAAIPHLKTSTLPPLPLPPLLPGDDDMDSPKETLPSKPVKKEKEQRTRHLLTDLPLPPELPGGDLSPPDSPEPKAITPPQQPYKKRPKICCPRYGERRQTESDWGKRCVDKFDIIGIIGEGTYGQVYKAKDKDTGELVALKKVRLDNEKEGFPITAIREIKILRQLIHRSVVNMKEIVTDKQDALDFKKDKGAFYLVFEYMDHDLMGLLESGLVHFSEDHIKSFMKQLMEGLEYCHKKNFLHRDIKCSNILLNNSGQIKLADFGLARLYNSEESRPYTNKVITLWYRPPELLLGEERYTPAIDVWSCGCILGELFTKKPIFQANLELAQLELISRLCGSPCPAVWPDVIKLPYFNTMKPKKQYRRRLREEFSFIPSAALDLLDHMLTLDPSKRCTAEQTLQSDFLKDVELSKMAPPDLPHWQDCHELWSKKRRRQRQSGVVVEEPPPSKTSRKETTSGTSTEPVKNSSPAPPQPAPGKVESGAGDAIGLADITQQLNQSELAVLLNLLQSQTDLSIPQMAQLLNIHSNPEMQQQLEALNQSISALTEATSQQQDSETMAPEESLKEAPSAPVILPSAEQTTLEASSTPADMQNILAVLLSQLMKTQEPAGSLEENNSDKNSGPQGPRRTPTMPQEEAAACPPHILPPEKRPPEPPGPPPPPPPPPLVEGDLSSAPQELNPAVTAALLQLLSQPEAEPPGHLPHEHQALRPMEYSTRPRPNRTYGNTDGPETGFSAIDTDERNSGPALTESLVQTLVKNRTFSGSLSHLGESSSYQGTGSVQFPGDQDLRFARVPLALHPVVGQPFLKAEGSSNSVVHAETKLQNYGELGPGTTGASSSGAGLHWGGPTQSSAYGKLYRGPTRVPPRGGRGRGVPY

[4] = Metabolic stability in human liver microsome assessed as half life in presence of NADPH incubated upto 60 mins by LC-MS/MS analysis; format: ADME; settings: liver microsomes
[5] = Half life in Sprague-Dawley rat 1 mg/kg, iv measured upto 24 hrs by LC-MS/MS analysis; format: ADME, organism-based; settings: in vivo
[6] = Half life in Sprague-Dawley rat 10 mg/kg, po measured upto 24 hrs by LC-MS/MS analysis; format: ADME, organism-based; settings: in vivo
[7] = AUC (0 to t) in Sprague-Dawley rat at 1 mg/kg, iv measured upto 24 hrs by LC-MS/MS analysis; format: ADME, organism-based; settings: in vivo
[8] = AUC (0 to t) in Sprague-Dawley rat at 10 mg/kg, po measured upto 24 hrs by LC-MS/MS analysis; format: ADME, organism-based; settings: in vivo
[9] = Apparent volume of distribution in Sprague-Dawley rat at 1 mg/kg, iv measured upto 24 hrs by LC-MS/MS analysis; format: ADME, organism-based; settings: in vivo, read-out: Vz
[10] = target: Transcription initiation factor TFIID subunit 1-like (Homo sapiens) (UniProt Q8IZX4); assay: Inhibition of TAF1L (unknown origin) at 1 uM relative to control
[11] = target: Cyclin-dependent kinase 2 (Homo sapiens, UniProt P24941); assay: Inhibition of CDK2 (unknown origin) at 1 uM relative to control
[12] = target: Vascular endothelial growth factor receptor 3 (Homo sapiens) (UniProt P35916); assay: Inhibition of FLT4 (unknown origin) at 1 uM relative to control
[13] = target: AP2-associated protein kinase 1 (Homo sapiens) (UniProt Q2M2I8); assay: Inhibition of AAK1 (unknown origin) at 1 uM relative to control
[14] = target: Cyclin-dependent kinase 5 (Homo sapiens, UniProt Q00535); assay: Inhibition of CDK5 (unknown origin)
[15] = target: T1, Cyclin-dependent kinase 12; assay: Inhibition of CDK12 in human MDA-MB-231 cells assessed as effect on Pol II CTD at ser5 residue phosphorylation incubated for 24 hrs; format: cell-based; settings: dose 5-20 µM
Target sequence in this assay (Q9NYV4 whole entry, looked up): as the sequence (Q9NYV4 whole entry) above

[16] = target: T1, Cyclin-dependent kinase 12; assay: Inhibition of CDK12 in human MDA-MB-436 cells assessed as effect on Pol II CTD at ser7 residue phosphorylation incubated for 24 hrs; format: cell-based; settings: dose 5-20 µM
Target sequence in this assay (Q9NYV4 whole entry, looked up): as the sequence (Q9NYV4 whole entry) above

[17] = target: Poly [ADP-ribose] polymerase 1 (Homo sapiens, UniProt P09874); assay: Binding affinity to PARP1 in human MDA-MB-231 cells assessed as increase in protein thermal stabilization at 10 uM incubated for 6 hrs by CETSA based Western blot analysis; format: cell-based
MDA-MB-231 [18] = assay: Antiproliferative activity against human MDA-MB-231 cells transfected with wild type PARP1 and CDK12 M816A mutant incubated for 24 hrs by MTT assay; format: functional, cell-based
MDA-MB-436 [19] = assay: Antiproliferative activity against human MDA-MB-436 cells transfected with wild type PARP1 and CDK12 M816A mutant incubated for 24 hrs by MTT assay; format: functional, cell-based
MDA-MB-231 [20] = assay: Upregulation of gamma-H2AX expression in human MDA-MB-231 cells incubated for 24 hrs by Western blot analysis; format: functional, cell-based; settings: dose <= 20.0 µM
MDA-MB-436 [21] = assay: Upregulation of gamma-H2AX expression in human MDA-MB-436 cells incubated for 24 hrs by Western blot analysis; format: functional, cell-based; settings: dose <= 20.0 µM
MDA-MB-468 [22] = assay: Induction of […] in human MDA-MB-468 cells assessed as increase in gamma-H2AX foci formation at 10 uM incubated for 24 hrs by confocal laser scanning microscopic analysis; format: functional, cell-based
MDA-MB-468 [23] = assay: […] DNA repair in human MDA-MB-468 cells assessed as decrease in RAD51 level at 10 uM incubated for 24 hrs by confocal laser scanning microscopic analysis; format: functional, cell-based
MDA-MB-468 [24] = assay: […] DNA repair in human MDA-MB-468 cells assessed as […] formation at 10 uM incubated for 24 hrs by confocal laser scanning microscopic analysis; format: functional, cell-based
MDA-MB-231 [25] = assay: Induction of cell cycle arrest in human MDA-MB-231 cells assessed as accumulation of cells at G1 phase at 5 uM measured after 24 hrs by PI staining based cytometry analysis (reference value: 68.55%); format: functional
MDA-MB-231 [26] = assay: Induction of cell cycle arrest in human MDA-MB-231 cells assessed as accumulation of cells at G1 phase at 10 uM measured after 24 hrs by PI staining based cytometry analysis (reference value: 68.55%); format: functional
MDA-MB-231 [27] = assay: Induction of cell cycle arrest in human MDA-MB-231 cells assessed as accumulation of cells at G1 phase at 20 uM measured after 24 hrs by PI staining based cytometry analysis (reference value: 68.55%); format: functional
MDA-MB-231 [28] = assay: Induction of cell cycle arrest in human MDA-MB-231 cells assessed as accumulation of cells at S phase at 20 uM measured after 24 hrs by PI staining based cytometry analysis (reference value: 23.01 %); format: functional
MDA-MB-231 [29] = assay: Antiproliferative activity against human MDA-MB-231 cells assessed as reduction in EDU-positive cells at 10 uM […]-staining based analysis; format: functional, cell-based
MDA-MB-231 [30] = assay: Inhibition of cell migration in human MDA-MB-231 cells assessed as wound closure at 10 uM incubated for 24 hrs by wound healing assay; format: functional, cell-based
MDA-MB-231 [31] = assay: Induction of apoptosis in human MDA-MB-231 cells incubated for 24 hrs by Annexin V/PI staining based flow cytometry analysis; format: functional, cell-based; settings: dose 5-20 µM
MDA-MB-468 [32] = assay: Induction of apoptosis in human MDA-MB-468 cells assessed as upregulation of cleaved-caspase 3 expression incubated for 24 hrs; format: functional, cell-based; settings: dose 5-20 µM
MDA-MB-231 [33] = assay: Induction of apoptosis in human MDA-MB-231 cells assessed as downregulation of Bcl-2 expression incubated for 24 hrs; format: functional, cell-based; settings: dose 5-20 µM
MDA-MB-231 [34] = assay: Antitumor activity against human MDA-MB-231 cells xenografted in ip dosed BALB/c mouse assessed as reduction in tumor growth administered once daily for 16 days; format: functional, organism-based; settings: dose 20-80 mg/kg, time 16.0 day
[35] = Toxicity in BALB/c mouse xenografted with human MDA-MB-231 cells assessed as morphological changes in kidney at 20 to 80 mg/kg, ip administered once daily for 16 days by H and E staining based analysis; format: organism-based; settings: in vivo, 384 h, dose 20-80 mg/kg, time 16 day
Mus musculus [36] = assay: In-vivo inhibition of CDK12-PARP1 in BALB/c mouse assessed as downregulation of CTD at Ser2 residue expression in tumor at 20 to 80 mg/kg, ip administered once daily for 16 days by Western blot analysis; format: functional, organism-based; settings: dose 20-80 mg/kg, time 16.0 day
Mus musculus [37] = assay: In-vivo induction of DNA damage in ip dosed BALB/c mouse assessed as upregulation of gamma-H2AX level in tumor administered once daily for 16 days by Western blot analysis; format: functional, organism-based; settings: dose 20-80 mg/kg, time 16.0 day

Chain of Poly [ADP-ribose] polymerase 1 (P09874 whole entry): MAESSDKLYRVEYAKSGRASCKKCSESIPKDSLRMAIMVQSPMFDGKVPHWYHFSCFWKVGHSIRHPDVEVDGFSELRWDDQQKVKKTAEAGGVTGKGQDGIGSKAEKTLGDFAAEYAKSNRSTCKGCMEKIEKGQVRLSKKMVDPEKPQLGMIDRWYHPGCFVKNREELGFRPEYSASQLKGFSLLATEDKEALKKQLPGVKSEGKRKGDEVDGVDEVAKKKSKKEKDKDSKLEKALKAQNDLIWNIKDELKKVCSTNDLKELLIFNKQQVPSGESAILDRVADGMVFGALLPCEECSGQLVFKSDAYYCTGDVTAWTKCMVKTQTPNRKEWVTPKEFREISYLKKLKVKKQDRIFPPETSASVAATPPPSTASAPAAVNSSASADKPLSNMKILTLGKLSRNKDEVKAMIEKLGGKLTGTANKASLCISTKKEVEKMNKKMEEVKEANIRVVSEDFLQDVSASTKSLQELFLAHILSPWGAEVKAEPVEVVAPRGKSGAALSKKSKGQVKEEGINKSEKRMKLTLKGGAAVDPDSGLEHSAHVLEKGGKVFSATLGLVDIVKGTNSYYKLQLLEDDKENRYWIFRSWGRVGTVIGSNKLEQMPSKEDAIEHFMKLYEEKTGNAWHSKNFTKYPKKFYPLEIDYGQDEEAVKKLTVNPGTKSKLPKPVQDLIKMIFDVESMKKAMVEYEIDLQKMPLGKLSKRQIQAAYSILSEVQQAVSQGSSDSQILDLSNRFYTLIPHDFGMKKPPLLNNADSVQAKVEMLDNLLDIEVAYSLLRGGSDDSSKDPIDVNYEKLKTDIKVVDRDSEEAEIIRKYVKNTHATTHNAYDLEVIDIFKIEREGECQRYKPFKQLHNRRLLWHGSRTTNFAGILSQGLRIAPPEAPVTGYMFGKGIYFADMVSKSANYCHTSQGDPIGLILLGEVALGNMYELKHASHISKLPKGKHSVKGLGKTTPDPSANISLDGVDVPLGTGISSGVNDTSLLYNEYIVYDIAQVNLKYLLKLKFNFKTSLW
Chain of Cyclin-dependent kinase 5 (Q00535 whole entry): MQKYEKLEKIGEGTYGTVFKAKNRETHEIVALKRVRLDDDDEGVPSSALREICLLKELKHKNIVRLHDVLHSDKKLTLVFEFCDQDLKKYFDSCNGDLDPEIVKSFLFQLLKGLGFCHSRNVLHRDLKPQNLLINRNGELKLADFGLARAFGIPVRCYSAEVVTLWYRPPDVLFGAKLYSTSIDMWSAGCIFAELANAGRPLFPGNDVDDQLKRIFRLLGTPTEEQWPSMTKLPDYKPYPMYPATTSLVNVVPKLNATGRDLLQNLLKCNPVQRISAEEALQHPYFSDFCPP
Chain of Vascular endothelial growth factor receptor 3 (Homo sapiens) (P35916 whole entry): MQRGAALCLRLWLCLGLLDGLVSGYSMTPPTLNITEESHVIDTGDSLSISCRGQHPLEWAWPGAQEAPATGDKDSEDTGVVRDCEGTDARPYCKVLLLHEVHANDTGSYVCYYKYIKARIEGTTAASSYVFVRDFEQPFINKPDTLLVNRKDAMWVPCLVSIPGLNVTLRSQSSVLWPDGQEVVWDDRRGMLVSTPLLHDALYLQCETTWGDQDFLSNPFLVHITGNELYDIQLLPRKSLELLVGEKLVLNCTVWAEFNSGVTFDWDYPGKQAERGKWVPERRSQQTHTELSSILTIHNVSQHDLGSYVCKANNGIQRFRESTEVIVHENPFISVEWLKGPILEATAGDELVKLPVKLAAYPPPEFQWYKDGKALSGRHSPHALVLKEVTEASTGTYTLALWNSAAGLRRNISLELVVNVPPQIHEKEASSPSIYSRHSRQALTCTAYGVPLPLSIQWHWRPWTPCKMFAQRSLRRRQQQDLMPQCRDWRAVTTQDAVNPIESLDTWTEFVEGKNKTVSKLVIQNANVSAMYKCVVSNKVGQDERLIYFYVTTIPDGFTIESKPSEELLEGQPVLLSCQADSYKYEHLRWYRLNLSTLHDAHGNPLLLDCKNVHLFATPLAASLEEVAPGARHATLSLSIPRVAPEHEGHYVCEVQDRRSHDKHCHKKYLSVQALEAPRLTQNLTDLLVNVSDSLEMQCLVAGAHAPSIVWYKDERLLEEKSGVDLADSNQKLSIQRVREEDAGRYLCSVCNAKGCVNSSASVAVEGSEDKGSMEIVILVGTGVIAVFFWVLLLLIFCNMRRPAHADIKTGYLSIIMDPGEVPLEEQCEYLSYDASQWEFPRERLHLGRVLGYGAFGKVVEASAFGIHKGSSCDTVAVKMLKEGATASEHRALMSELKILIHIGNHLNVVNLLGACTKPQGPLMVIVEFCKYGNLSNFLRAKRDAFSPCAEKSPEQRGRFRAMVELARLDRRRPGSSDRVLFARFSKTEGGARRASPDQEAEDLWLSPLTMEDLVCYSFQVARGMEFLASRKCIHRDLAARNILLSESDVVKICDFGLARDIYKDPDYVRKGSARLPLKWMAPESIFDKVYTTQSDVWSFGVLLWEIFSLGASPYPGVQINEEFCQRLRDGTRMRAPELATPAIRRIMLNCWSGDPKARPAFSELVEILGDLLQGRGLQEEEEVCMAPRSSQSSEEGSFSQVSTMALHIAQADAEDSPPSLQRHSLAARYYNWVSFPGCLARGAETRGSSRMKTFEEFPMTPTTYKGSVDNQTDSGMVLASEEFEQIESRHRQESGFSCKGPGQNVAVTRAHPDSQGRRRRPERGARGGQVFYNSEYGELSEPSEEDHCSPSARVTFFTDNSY

IC50 (MDA-MB-468 [1]): 9.7 µM | IC50 (MDA-MB-436 [2]): 9 µM | IC50 [3]: 0.285 µM | half-life [4]: 3.51 h | half-life [5]: 3 h | half-life [6]: 2.39 h | AUC(0-t) at 24 h [7]: 1250 ng·h/mL | AUC(0-t) at 24 h [8]: 60.6 ng·h/mL | Vd [9]: 3.22 L/kg | inhibition [10]: > 60% | inhibition [11]: > 60% | inhibition [12]: > 60% | inhibition [13]: > 60% | IC50 [14]: 0.747 µM | inhibition [15]: Dose-Dependent Effect | inhibition [16]: Dose-Dependent Effect | Activity [17]: Active
Structure (SMILES): NC(=O)c1cccc2[nH]c(NC(=O)c3cccc(C(=O)N4CCC(Nc5ncc(I)cn5)CC4)c3)nc12
Activity (MDA-MB-231 [18]): Active | Activity (MDA-MB-436 [19]): Active | Activity (MDA-MB-231 [20]): Dose-Dependent Effect | Activity (MDA-MB-436 [21]): Dose-Dependent Effect | Activity (MDA-MB-468 [22]): Active | Activity (MDA-MB-468 [23]): Active | Activity (MDA-MB-468 [24]): Active | Activity (MDA-MB-231 [25]): 63.3% | Activity (MDA-MB-231 [26]): 61.71% | Activity (MDA-MB-231 [27]): 59.26% | Activity (MDA-MB-231 [28]): 17.32% | Activity (MDA-MB-231 [29]): Active | inhibition (MDA-MB-231 [30]): Active | Activity (MDA-MB-231 [31]): Dose-Dependent Effect | Activity (MDA-MB-468 [32]): Dose-Dependent Effect | Activity (MDA-MB-231 [33]): Dose-Dependent Effect | Activity (MDA-MB-231 [34]): Dose-Dependent Effect | Activity [35]: Non-Toxic | inhibition (Mus musculus [36]): Active | Activity (Mus musculus [37]): Active
